Data as given in patent publication US20240158446A1, “CYCLIC COMPOUND HAVING SELECTIVE INHIBITORY ACTION ON KRAS OVER HRAS AND NRAS” (CHUGAI SEIYAKU KABUSHIKI KAISHA, priority 2021, published 2024).
*1 amine or outer side, *2 acyl side, *3 side chain or, on linkers, in order; H or OH if unused. Where a SMILES comes first, the peptide text is derived from it. Bridges are numbered along the chain shown (N, C = ends). [ ]: non-standard residue; d: D form. The star is where a group is joined. hPhe(3,5-F2-4-CF3) = N[C@@H](CCc1cc(F)c(C(F)(F)F)c(F)c1)C(=O)O; NPrPhe(4-CF3) = CCCN[C@@H](Cc1ccc(C(F)(F)F)cc1)C(=O)O; NMeAbu(4,4,4-F3) = CN[C@@H](CC(F)(F)F)C(=O)O; NMeGly(cPent) = CN[C@H](C(=O)O)C1CCCC1; Ac4c(3,3-F2) = NC1(C(=O)O)CC(F)(F)C1; X11 = CCC[C@](C)(N[*:1])C(=O)[*:2]; αMeCha = C[C@](N)(CC1CCCCC1)C(=O)O; Nva(3-Et) = CCC(CC)[C@H](N)C(=O)O; NMeD = CN[C@@H](CC(=O)O)C(=O)O; Ac4c(3-oxa) = NC1(C(=O)O)COC1; NMeL = CN[C@@H](CC(C)C)C(=O)O; αMeL = CC(C)C[C@](C)(N)C(=O)O; αMeS = C[C@](N)(CO)C(=O)O; Iva = CC[C@](C)(N)C(=O)O; Morpholide = C1CN(*)CCO1; Ac5c = NC1(C(=O)O)CCCC1; Aze = O=C(O)[C@@H]1CCN1; Sar = CNCC(=O)O; tBu = CC(C)(C)*; Allyl = C=CC*

Experiments:
[1] = biological target: GDP-bound HRAS wild-type protein (Homo sapiens, UniProt P01112); assay: Binding to HRAS by surface plasmon resonance (SPR), Single Cycle Kinetics; conditions: SPR, GDP-bound HRAS wild-type protein vs GDP-bound KRAS wild-type protein
GDP-bound HRAS wild-type protein, sequence (P01112 whole entry): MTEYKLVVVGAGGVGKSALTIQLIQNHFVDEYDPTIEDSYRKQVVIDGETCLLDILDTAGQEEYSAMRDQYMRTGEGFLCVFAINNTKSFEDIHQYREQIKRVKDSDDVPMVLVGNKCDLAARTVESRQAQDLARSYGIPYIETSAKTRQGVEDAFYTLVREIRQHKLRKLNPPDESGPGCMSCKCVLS

[2] = biological target: GDP-bound KRAS wild-type protein (Homo sapiens, UniProt P01116); assay: Binding to KRAS by surface plasmon resonance (SPR), Single Cycle Kinetics; conditions: SPR Single Cycle Kinetics, GDP-bound KRAS wild-type protein, 1:1 binding model; read-out: KRAS KD
GDP-bound KRAS wild-type protein, sequence (P01116 whole entry): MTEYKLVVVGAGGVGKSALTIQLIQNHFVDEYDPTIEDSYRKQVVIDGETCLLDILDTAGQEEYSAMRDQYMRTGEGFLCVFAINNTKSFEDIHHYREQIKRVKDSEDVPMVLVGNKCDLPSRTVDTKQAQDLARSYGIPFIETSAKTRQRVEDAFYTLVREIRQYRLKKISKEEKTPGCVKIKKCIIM

[3] = biological target: GDP-bound NRAS wild-type protein (Homo sapiens, UniProt P01111); assay: Binding to NRAS by surface plasmon resonance (SPR), Single Cycle Kinetics; conditions: SPR, GDP-bound NRAS wild-type protein vs GDP-bound KRAS wild-type protein
GDP-bound NRAS wild-type protein, sequence (P01111 whole entry): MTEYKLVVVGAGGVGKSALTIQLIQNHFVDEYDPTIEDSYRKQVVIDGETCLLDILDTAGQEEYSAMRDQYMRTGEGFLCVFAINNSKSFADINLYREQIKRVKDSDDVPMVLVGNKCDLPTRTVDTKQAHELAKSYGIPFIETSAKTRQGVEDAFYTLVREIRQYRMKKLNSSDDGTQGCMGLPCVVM

Kd [2] [nM]	SMILES	HRAS/KRAS (ratio of KD value with respect to HRAS to KD value with respect to KRAS) [1]	NRAS/KRAS (ratio of KD value with respect to NRAS to KD value with respect to KRAS) [3]
1.5	CCCN1C(=O)[C@@H]2CCN2C(=O)CN(C)C(=O)[C@H]([C@@H](C)CC)NC(=O)[C@H](CC(C)C)N(C)C(=O)C[C@@H](C(=O)N2CCOCC2)N(C)C(=O)[C@H](C2CCCC2)N(C)C(=O)[C@](C)(CCC)NC(=O)[C@@H]2CCCN2C(=O)[C@H](CCc2cc(F)c(C(F)(F)F)c(F)c2)NC(=O)CN(C)C(=O)[C@@H]1Cc1ccc(C(F)(F)F)cc1 [PP0794] ([NMeL]I[Sar][Aze][NPrPhe(4-CF3)][Sar][hPhe(3,5-F2-4-CF3)]P[X11][NMeGly(cPent)][NMeD]-Morpholide; lactam N-11)	B (a compound having 3 or more and less than 10 is denoted as B)	C (A compound having a KD ratio of 0.1 or more and less than 3 is denoted as C)
2.5	CCCN1C(=O)[C@@H]2CCN2C(=O)CN(C)C(=O)[C@H]([C@@H](C)CC)NC(=O)[C@H](CC(C)C)N(C)C(=O)C[C@@H](C(=O)N2CCOCC2)N(C)C(=O)[C@H](C2CCCC2)N(C)C(=O)[C@](C)(CC(C)C)NC(=O)[C@@H]2CCCN2C(=O)[C@H](CCc2cc(F)c(C(F)(F)F)c(F)c2)NC(=O)CN(C)C(=O)[C@@H]1Cc1ccc(C(F)(F)F)cc1 [PP0795] ([NMeL]I[Sar][Aze][NPrPhe(4-CF3)][Sar][hPhe(3,5-F2-4-CF3)]P[αMeL][NMeGly(cPent)][NMeD]-Morpholide; lactam N-11)	B (a compound having 3 or more and less than 10 is denoted as B)	C (A compound having a KD ratio of 0.1 or more and less than 3 is denoted as C)
7.5	CCCN1C(=O)[C@@H]2CCN2C(=O)CN(C)C(=O)[C@H]([C@@H](C)CC)NC(=O)[C@H](CC(C)C)N(C)C(=O)C[C@@H](C(=O)N2CCOCC2)N(C)C(=O)[C@H](C2CCCC2)N(C)C(=O)[C@](C)(CC2CCCCC2)NC(=O)[C@@H]2CCCN2C(=O)[C@H](CCc2cc(F)c(C(F)(F)F)c(F)c2)NC(=O)CN(C)C(=O)[C@@H]1Cc1ccc(C(F)(F)F)cc1 [PP0796] ([NMeL]I[Sar][Aze][NPrPhe(4-CF3)][Sar][hPhe(3,5-F2-4-CF3)]P[αMeCha][NMeGly(cPent)][NMeD]-Morpholide; lactam N-11)	B (a compound having 3 or more and less than 10 is denoted as B)	C (A compound having a KD ratio of 0.1 or more and less than 3 is denoted as C)
1.9	CCCN1C(=O)[C@@H]2CCN2C(=O)CN(C)C(=O)[C@H]([C@@H](C)CC)NC(=O)[C@H](CC(C)C)N(C)C(=O)C[C@@H](C(=O)N2CCOCC2)N(C)C(=O)[C@H](C2CCCC2)N(C)C(=O)[C@](C)(COC)NC(=O)[C@@H]2CCCN2C(=O)[C@H](CCc2cc(F)c(C(F)(F)F)c(F)c2)NC(=O)CN(C)C(=O)[C@@H]1Cc1ccc(C(F)(F)F)cc1 [PP0798] ([NMeL]I[Sar][Aze][NPrPhe(4-CF3)][Sar][hPhe(3,5-F2-4-CF3)]P[αMeS](Me)[NMeGly(cPent)][NMeD]-Morpholide; lactam N-11)	B (a compound having 3 or more and less than 10 is denoted as B)	C (A compound having a KD ratio of 0.1 or more and less than 3 is denoted as C)
1.5	C=CCOC[C@]1(C)NC(=O)[C@@H]2CCCN2C(=O)[C@H](CCc2cc(F)c(C(F)(F)F)c(F)c2)NC(=O)CN(C)C(=O)[C@H](Cc2ccc(C(F)(F)F)cc2)N(CCC)C(=O)[C@@H]2CCN2C(=O)CN(C)C(=O)[C@H]([C@@H](C)CC)NC(=O)[C@H](CC(C)C)N(C)C(=O)C[C@@H](C(=O)N2CCOCC2)N(C)C(=O)[C@H](C2CCCC2)N(C)C1=O [PP0799] ([NMeL]I[Sar][Aze][NPrPhe(4-CF3)][Sar][hPhe(3,5-F2-4-CF3)]P[αMeS](Allyl)[NMeGly(cPent)][NMeD]-Morpholide; lactam N-11)	B (a compound having 3 or more and less than 10 is denoted as B)	C (A compound having a KD ratio of 0.1 or more and less than 3 is denoted as C)
2.7	CCCN1C(=O)[C@@H]2CCN2C(=O)CN(C)C(=O)[C@H]([C@@H](C)CC)NC(=O)[C@H](CC(C)C)N(C)C(=O)C[C@@H](C(=O)N2CCOCC2)N(C)C(=O)[C@H](C2CCCC2)N(C)C(=O)[C@](C)(COC(C)(C)C)NC(=O)[C@@H]2CCCN2C(=O)[C@H](CCc2cc(F)c(C(F)(F)F)c(F)c2)NC(=O)CN(C)C(=O)[C@@H]1Cc1ccc(C(F)(F)F)cc1 [PP0800] ([NMeL]I[Sar][Aze][NPrPhe(4-CF3)][Sar][hPhe(3,5-F2-4-CF3)]P[αMeS](tBu)[NMeGly(cPent)][NMeD]-Morpholide; lactam N-11)	B (a compound having 3 or more and less than 10 is denoted as B)	C (A compound having a KD ratio of 0.1 or more and less than 3 is denoted as C)
0.45	CCCN1C(=O)[C@@H]2CCN2C(=O)CN(C)C(=O)[C@H]([C@@H](C)CC)NC(=O)[C@H](CC(C)C)N(C)C(=O)C[C@@H](C(=O)N2CCOCC2)N(C)C(=O)[C@H](C2CCCC2)N(C)C(=O)C2(COC2)NC(=O)[C@@H]2CCCN2C(=O)[C@H](CCc2cc(F)c(C(F)(F)F)c(F)c2)NC(=O)CN(C)C(=O)[C@@H]1Cc1ccc(C(F)(F)F)cc1 [PP0801] ([NMeL]I[Sar][Aze][NPrPhe(4-CF3)][Sar][hPhe(3,5-F2-4-CF3)]P[Ac4c(3-oxa)][NMeGly(cPent)][NMeD]-Morpholide; lactam N-11)	B (a compound having 3 or more and less than 10 is denoted as B)	C (A compound having a KD ratio of 0.1 or more and less than 3 is denoted as C)
0.082	CCCN1C(=O)[C@@H]2CCN2C(=O)CN(C)C(=O)[C@H]([C@@H](C)CC)NC(=O)[C@H](CC(C)C)N(C)C(=O)C[C@@H](C(=O)N2CCOCC2)N(C)C(=O)[C@H](C2CCCC2)N(C)C(=O)C2(CC(F)(F)C2)NC(=O)[C@@H]2CCCN2C(=O)[C@H](CCc2cc(F)c(C(F)(F)F)c(F)c2)NC(=O)CN(C)C(=O)[C@@H]1Cc1ccc(C(F)(F)F)cc1 [PP0802] ([NMeL]I[Sar][Aze][NPrPhe(4-CF3)][Sar][hPhe(3,5-F2-4-CF3)]P[Ac4c(3,3-F2)][NMeGly(cPent)][NMeD]-Morpholide; lactam N-11)	B (a compound having 3 or more and less than 10 is denoted as B)	C (A compound having a KD ratio of 0.1 or more and less than 3 is denoted as C)
1.7	CCCN1C(=O)[C@@H]2CCN2C(=O)CN(C)C(=O)[C@H]([C@@H](C)CC)NC(=O)[C@H](CC(C)C)N(C)C(=O)C[C@@H](C(=O)N2CCOCC2)N(C)C(=O)[C@H](CC(F)(F)F)N(C)C(=O)C2(CCCC2)NC(=O)[C@@H]2CCCN2C(=O)[C@H](CCc2cc(F)c(C(F)(F)F)c(F)c2)NC(=O)CN(C)C(=O)[C@@H]1Cc1ccc(C(F)(F)F)cc1 [PP0803] ([NMeL]I[Sar][Aze][NPrPhe(4-CF3)][Sar][hPhe(3,5-F2-4-CF3)]P[Ac5c][NMeAbu(4,4,4-F3)][NMeD]-Morpholide; lactam N-11)	B (a compound having 3 or more and less than 10 is denoted as B)	C (A compound having a KD ratio of 0.1 or more and less than 3 is denoted as C)
1.4	CCCN1C(=O)[C@@H]2CCN2C(=O)CN(C)C(=O)[C@H](C(CC)CC)NC(=O)[C@H](CC(C)C)N(C)C(=O)C[C@@H](C(=O)N2CCOCC2)N(C)C(=O)[C@H](C2CCCC2)N(C)C(=O)C2(CCCC2)NC(=O)[C@@H]2CCCN2C(=O)[C@H](CCc2cc(F)c(C(F)(F)F)c(F)c2)NC(=O)CN(C)C(=O)[C@@H]1Cc1ccc(C(F)(F)F)cc1 [PP0804] ([NMeL][Nva(3-Et)][Sar][Aze][NPrPhe(4-CF3)][Sar][hPhe(3,5-F2-4-CF3)]P[Ac5c][NMeGly(cPent)][NMeD]-Morpholide; lactam N-11)	B (a compound having 3 or more and less than 10 is denoted as B)	C (A compound having a KD ratio of 0.1 or more and less than 3 is denoted as C)
0.16	CCCN1C(=O)CN(C)C(=O)CN(C)C(=O)[C@H]([C@@H](C)CC)NC(=O)[C@H](CC(C)C)N(C)C(=O)C[C@@H](C(=O)N(C)C)N(C)C(=O)[C@H](C2CCCC2)N(C)C(=O)[C@](C)(CC)NC(=O)[C@@H]2CCCN2C(=O)[C@H](CCc2cc(F)c(C(F)(F)F)c(F)c2)NC(=O)CN(C)C(=O)[C@@H]1Cc1ccc(C(F)(F)F)cc1 [PP0805] ([NMeL]I[Sar][Sar][NPrPhe(4-CF3)][Sar][hPhe(3,5-F2-4-CF3)]P[Iva][NMeGly(cPent)][NMeD]-NMe2; lactam N-11)	C (A compound having a KD ratio of 0.1 or more and less than 3 is denoted as C)	B (a compound having 3 or more and less than 10 is denoted as B)
0.059	CCO[C@@H]1C[C@H]2C(=O)NC3(CCC3)C(=O)N(C)[C@@H](C3CCCC3)C(=O)N(C)[C@H](C(=O)N3CCOCC3)CC(=O)N(C)[C@@H](CC(C)C)C(=O)N[C@@H](C3CC(F)(F)C3)C(=O)N(C)CC(=O)N(C)[C@H]3CCCCN(C3=O)[C@@H](Cc3ccc(C(F)(F)F)cc3)C(=O)N(C)CC(=O)N[C@@H](CCc3cc(F)c(C(F)(F)F)c(F)c3)C(=O)N2C1 [PP0807]	B (a compound having 3 or more and less than 10 is denoted as B)	B (a compound having 3 or more and less than 10 is denoted as B)
